Patent US20250154169A1, “COMPOUNDS AND METHODS FOR MODULATING SPLICING” (REMIX THERAPEUTICS INC., priority 2021, published 2025)
Where two headings read alike, the source gives them in different places.

Key:
Type in all cases: cell-based, human
HTT mRNA [1] = assay: Splicing RT-qPCR assay, HTT canonical (CJ) and alternative (AJ) junction mRNA; details: A673 or K562 cells, 24 hours compound treatment; for IC50: read-out: HTT CJ (IC50, decrease in canonical junction mRNA); for AC50: read-out: HTT AJ (AC50, increase in alternative junction mRNA)
Procedure, shortened: (§1)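 Read-out is the abundance of canonical-junction versus new alternative-exon-junction mRNA, determined by real-time qPCR after cDNA synthesis and normalized to a housekeeping gene. It is measured in A673 or K562 cells exposed to compounds for 24 h, top dose 10 uM.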

MYB mRNA = assay: Splicing RT-qPCR assay, MYB canonical (CJ) and alternative (AJ) junction mRNA; details: for AC50: read-out: MYB AJ (AC50, increase in alternative junction mRNA)
Procedure, shortened: as §1

SMN2 mRNA = assay: Splicing RT-qPCR gene panel, SMN2 canonical junction (CJ) mRNA; details: Tables 4A/4B, read-out: SMN2 (IC50, decrease in CJ mRNA, gene panel)
Procedure, shortened: (§2)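 A673 or K562 cells were treated 24 h at 37 °C with an 11-point 3-fold dilution series (top 10 uM, ≤0.25% DMSO). Canonical-junction mRNA was measured in lysates by one-step RT-qPCR, normalized to GAPDH, GUSB or PPIA and DMSO control (2^(−ΔΔCt)), expressed as percentage response.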

Target C mRNA = assay: Splicing RT-qPCR gene panel, Target C canonical junction (CJ) mRNA; details: Tables 4A/4B, read-out: Target C (IC50, decrease in CJ mRNA, gene panel)
Procedure, shortened: as §2

HTT mRNA [2] = assay: Splicing RT-qPCR gene panel, HTT canonical junction (CJ) mRNA; details: Tables 4A/4B, read-out: HTT (IC50, decrease in CJ mRNA, gene panel)
Procedure, shortened: as §2

[3] = Homo sapiens, 24 h, A673 or K562 cells, 24 hours compound treatment, RT-qPCR
[4] = Homo sapiens, 24 h, A673 or K562 cells, 24 hours compound treatment, RT-qPCR, read-out: MYB CJ (IC50, decrease in canonical junction mRNA)
[5] = Homo sapiens, Tables 4A/4B, canonical junction qPCR panel, read-out: MYB (IC50, decrease in CJ mRNA, gene panel)
[6] = A673 or K562 cells, 24 hours compound treatment, RT-qPCR
[7] = A673 or K562 cells, 24 hours compound treatment, RT-qPCR, read-out: MYB CJ (IC50, decrease in canonical junction mRNA)
[8] = Tables 4A/4B, canonical junction qPCR panel, read-out: MYB (IC50, decrease in CJ mRNA, gene panel)

Compound | IC50 (HTT mRNA [1]; Homo sapiens, 24 h) | IC50 (MYB mRNA; [4]) | IC50 (MYB mRNA; [5]) | IC50 (SMN2 mRNA; Homo sapiens) | IC50 (Target C mRNA; Homo sapiens) | IC50 (HTT mRNA [2]; Homo sapiens) | IC50 (HTT mRNA [1]) | IC50 (MYB mRNA; [7]) | IC50 (MYB mRNA; [8]) | IC50 (Target C mRNA) | IC50 (HTT mRNA [2]) | IC50 (SMN2 mRNA) | AC50 (HTT mRNA [1]; Homo sapiens) | AC50 (MYB mRNA; [3]) | AC50 (MYB mRNA; [6]) | AC50 (HTT mRNA [1])
CCn1cc2c(N3CC[C@H](NC)C3)ccc(C(=O)Nc3cc(F)c4nc(C)cn4c3)c2n1 [Compound 437, (S)-2-ethyl-N-(8-fluoro-2-methylimidazo[1,2-a]pyridin-6-yl)-4-(3-(methylamino)pyrrolidin-1-yl)-2H-indazole-7-carboxamide] | 1000 to 10000 nM | < 100 nM | 100 to 1000 nM | < 100 nM | > 10000 nM | > 10000 nM | – | – | – | – | – | – | 1000 to 10000 nM | < 100 nM | – | –
CCNC1CCN(c2ccc(C(=O)Nc3cc(F)c4nc(C)sc4c3)c3nn(C)cc23)CC1 [Compound 443, 4-[4-(ethylamino)piperidin-1-yl]-N-(4-fluoro-2-methyl-1,3-benzothiazol-6-yl)-2-methylindazole-7-carboxamide] | 1000 to 10000 nM | < 100 nM | 100 to 1000 nM | < 100 nM | > 10000 nM | 1000 to 10000 nM | – | – | – | – | – | – | 1000 to 10000 nM | < 100 nM | – | –
Cc1cn2cc(NC(=O)c3ccc(N4CCNC[C@@H]4C)c4cn(C)nc34)cc(F)c2n1 [Compound 446, N-{8-fluoro-2-methylimidazo[1,2-a]pyridin-6-yl}-2-methyl-4-[(2S)-2-methylpiperazin-1-yl]indazole-7-carboxamide] | 1000 to 10000 nM | 100 to 1000 nM | 100 to 1000 nM | < 100 nM | 1000 to 10000 nM | 1000 to 10000 nM | – | – | – | – | – | – | 1000 to 10000 nM | 100 to 1000 nM | – | –
Cc1cn2cc(NC(=O)c3ccc(N4CCNCC4)c4cn(C)nc34)c(=O)n(C)c2n1 [Compound 451, N-{2,8-dimethyl-7-oxoimidazo[1,2-a]pyrimidin-6-yl}-2-methyl-4-(piperazin-1-yl) indazole-7-carboxamide] | > 10000 nM | 1000 to 10000 nM | > 10000 nM | > 10000 nM | > 10000 nM | > 10000 nM | – | – | – | – | – | – | > 10000 nM | 1000 to 10000 nM | – | –
CCn1cc2c(C3OCC(N)CO3)ccc(C(=O)Nc3cc(F)c4nc(C)cn4c3)c2n1 (stereo not drawn) [Compound 455, 4-(5-amino-1,3-dioxan-2-yl)-2-ethyl-N-{8-fluoro-2-methylimidazo[1,2-a]pyridin-6-yl}indazole-7-carboxamide] | > 10000 nM | > 10000 nM | 100 to 1000 nM | 100 to 1000 nM | 1000 to 10000 nM | 1000 to 10000 nM | – | – | – | – | – | – | > 10000 nM | > 10000 nM | – | –
COc1c(NC(=O)c2ccc(N3CCNCC3)c3cn(C)nc23)cc(C)c2nn(C)cc12 [Compound 456] | > 10000 nM | > 10000 nM | > 10000 nM | > 10000 nM | > 10000 nM | > 10000 nM | – | – | – | – | – | – | > 10000 nM | 1000 to 10000 nM | – | –
Cc1cn2c(n1)CCC(NC(=O)c1ccc(N3CCNCC3)c3cn(C)nc13)C2 (stereo not drawn) [Compound 457, 2-methyl-N-{2-methyl-5H,6H,7H,8H-imidazo[1,2-a]pyridin-6-yl}-4-(piperazin-1-yl) indazole-7-carboxamide] | > 10000 nM | > 10000 nM | > 10000 nM | > 10000 nM | > 10000 nM | > 10000 nM | – | – | – | – | – | – | > 10000 nM | > 10000 nM | – | –
Cc1nc2c(F)cc(NC(=O)c3ccc(N4CCNCC4)c4cn(C)nc34)cn2c1C [Compound 458, N-{8-fluoro-2,3-dimethylimidazo[1,2-a]pyridin-6-yl}-2-methyl-4-(piperazin-1-yl) indazole-7-carboxamide] | < 100 nM | < 100 nM | > 10000 nM | > 10000 nM | > 10000 nM | > 10000 nM | – | – | – | – | – | – | 100 to 1000 nM | < 100 nM | – | –
CCNC1CCN(c2ccc(C(=O)Nc3cn4cc(C)nc4c(F)c3OC)c3nn(C)cc23)CC1 [Compound 459, 4-[4-(ethylamino)piperidin-1-yl]-N-{8-fluoro-7-methoxy-2-methylimidazo [1,2-a]pyridin-6-yl}-2-methylindazole-7-carboxamide] | 100 to 1000 nM | < 100 nM | < 100 nM | < 100 nM | 1000 to 10000 nM | < 100 nM | – | – | – | – | – | – | 100 to 1000 nM | < 100 nM | – | –

Now from value to compound, other results behind:

IC50 (HTT mRNA [1]; Homo sapiens, 24 h) | IC50 (MYB mRNA; [4]) | IC50 (MYB mRNA; [5]) | IC50 (SMN2 mRNA; Homo sapiens) | IC50 (Target C mRNA; Homo sapiens) | IC50 (HTT mRNA [2]; Homo sapiens) | IC50 (HTT mRNA [1]) | IC50 (MYB mRNA; [7]) | IC50 (MYB mRNA; [8]) | IC50 (Target C mRNA) | IC50 (HTT mRNA [2]) | IC50 (SMN2 mRNA) | Compound | AC50 (HTT mRNA [1]; Homo sapiens) | AC50 (MYB mRNA; [3]) | AC50 (MYB mRNA; [6]) | AC50 (HTT mRNA [1])
1000 to 10000 nM | < 100 nM | < 100 nM | < 100 nM | > 10000 nM | 1000 to 10000 nM | – | – | – | – | – | – | CN[C@@H]1CCN(c2ccc(C(=O)Nc3cn4cc(C)nc4c(OC)n3)c3nn(C)cc23)C1 [Compound 441] | 1000 to 10000 nM | < 100 nM | – | –
1000 to 10000 nM | 100 to 1000 nM | < 100 nM | < 100 nM | > 10000 nM | 1000 to 10000 nM | – | – | – | – | – | – | CN[C@H]1CCN(c2ccc(C(=O)Nc3cn4cc(C)nc4c(OC)n3)c3nn(C)cc23)C1 [Compound 442] | > 10000 nM | 100 to 1000 nM | – | –
– | – | – | < 100 nM | – | – | 1000 to 10000 nM | 100 to 1000 nM | < 100 nM | 1000 to 10000 nM | 1000 to 10000 nM | – | Cc1cn2cc(NC(=O)c3ccc(N4CCNCC4)c4cn(C)nc34)c(C#N)cc2n1 [Compound 444, N-{7-cyano-2-methylimidazo[1,2-a]pyridin-6-yl}-2-methyl-4-(piperazin-1-yl) indazole-7-carboxamide] | > 10000 nM | – | 100 to 1000 nM | –
100 to 1000 nM | < 100 nM | 100 to 1000 nM | < 100 nM | 1000 to 10000 nM | 1000 to 10000 nM | – | – | – | – | – | – | Cc1cn2cc(NC(=O)c3ccc(N4CCNC[C@H]4C)c4cn(C)nc34)cc(F)c2n1 [Compound 447, N-{8-fluoro-2-methylimidazo[1,2-a]pyridin-6-yl}-2-methyl-4-[(2R)-2-methylpiperazin-1-yl]indazole-7-carboxamide] | 100 to 1000 nM | < 100 nM | – | –
100 to 1000 nM | < 100 nM | < 100 nM | < 100 nM | 1000 to 10000 nM | 100 to 1000 nM | – | – | – | – | – | – | CNC1CCN(c2ccc(C(=O)Nc3cc(F)c4nc(C)cn4c3)c3nn(C)cc23)CC1 [Compound 448, N-{8-fluoro-2-methylimidazo[1,2-a]pyridin-6-yl}-2-methyl-4-[4-(methylamino)piperidin-1-yl]indazole-7-carboxamide] | 1000 to 10000 nM | < 100 nM | – | –
> 10000 nM | > 10000 nM | < 100 nM | < 100 nM | 1000 to 10000 nM | 100 to 1000 nM | – | – | – | – | – | – | CCn1cc2c(N3CCN(C)CC3)ccc(C(=O)Nc3cc(F)c4nc(CO)oc4c3)c2n1 [Compound 450, 2-ethyl-N-[4-fluoro-2-(hydroxymethyl)-1,3-benzoxazol-6-yl]-4-(4-methylpiperazin-1-yl) indazole-7-carboxamide] | > 10000 nM | > 10000 nM | – | –
– | – | – | – | – | – | > 10000 nM | 1000 to 10000 nM | 1000 to 10000 nM | > 10000 nM | > 10000 nM | 100 to 1000 nM | Cc1cn2cc(NC(=O)c3ccc(N4CCNCC4)c4cn(C)nc34)c(C#N)cc2n1 [Compound 452, N-{7-cyano-2-methylimidazo[1,2-a]pyridin-6-yl}-2-methyl-4-(piperazin-1-yl) indazole-7-carboxamide] | – | – | 1000 to 10000 nM | > 10000 nM
> 10000 nM | 1000 to 10000 nM | 1000 to 10000 nM | 100 to 1000 nM | > 10000 nM | > 10000 nM | – | – | – | – | – | – | CCn1cc2c(N3CCNC(CF)C3)ccc(C(=O)Nc3cc(F)c4nc(C)cn4c3)c2n1 (stereo not drawn) [Compound 453, 2-ethyl-N-{8-fluoro-2-methylimidazo[1,2-a]pyridin-6-yl}-4-[3-(fluoromethyl)piperazin-1-yl]indazole-7-carboxamide] | > 10000 nM | 1000 to 10000 nM | – | –
1000 to 10000 nM | 100 to 1000 nM | 1000 to 10000 nM | < 100 nM | > 10000 nM | > 10000 nM | – | – | – | – | – | – | CCn1cc2c(C3OCC(C)(N)CO3)ccc(C(=O)Nc3cc(F)c4nc(C)cn4c3)c2n1 (stereo not drawn) [Compound 454, 4-(5-amino-5-methyl-1,3-dioxan-2-yl)-2-ethyl-N-{8-fluoro-2-methylimidazo[1,2-a]pyridin-6-yl}indazole-7-carboxamide] | 1000 to 10000 nM | 1000 to 10000 nM | – | –
